Data on one substance can be found in US9872904B2, “Photoimmunoconjugates for use in photodynamic therapy” (Fraunhofer-Gesellschaft zur Foerderung der angewandten …, priority 2012, dated 2018).

The test system of one test is CHO-K1. Kind of test: XTT cell proliferation assay (phototoxicity), CHO-K1 negative control. Format: cell-based, Chinese hamster. The conditions noted are these: CHO-K1 exposed to 800 nM; with light activation. Here is the method: All cell lines were […], including the EGFR^+ A431, MDA-MB-231, MDA-MB468 and SiHa cells, and the EGFR^− L540, CHO-K1 and HEK-293T cells. A431, L540, CHO-K1 and HEK-293T cells were cultured in RPMI-1640 medium supplemented with 2 mM L-glutamine, 10% (v/v) fetal bovine serum (FBS) and 100 U/ml penicillin-streptomycin. MDA-MB-231, MDA-MB468 and SiHa cells were cultured in DMEM with 10% (v/v) fetal bovine serum (FBS) and 100 U/ml penicillin-streptomycin. All cells were incubated at 37° C. in a 5% CO2 atmosphere. All media and additives were obtained from Invitrogen, Darmstadt, Germany.
(§1) Control cultures were incubated with 500 μg/ml zeocin instead of the photosensitizer. The cells were then irradiated with 24 J/cm^2 broadband visible/near infrared light using Hydrosun type 505, 7-mm water cuvette and orange filter OG590, spectrum in the range 580-1400 nm (Hydrosun Medizintechnik GmbH, Müllheim, Germany) and incubated for a further 24 h at 37° C. in a 5% CO2 atmosphere.
Cell viability was determined using the XTT cell proliferation kit II (Roche, Mannheim Germany), 24 h after light activation. […] Reduction of XTT to formazan by viable tumor cells was monitored colorimetrically at an absorbance wavelength of 450 nm and a reference wavelength of 630 nm using an ELISA plate reader Elisareader ELx808 (Bio-TEK, Bad Friedrichsahll, Germany).

For another test, the system named is caspase-3 and caspase-7. As to the kind of experiment: Apo-ONE Homogeneous Caspase-3/7 Assay. The format is cell-based, human. The following applies: 200 nM; 24 h after light activation; A431, MDA-MB-231, MDA-MB468, SiHa and CHO-K1 cells analyzed. Here is the method: as §1
Caspase-3/7 activity in cell lysates was determined using the Apo-ONE Caspase-3/7 assay (Promega, Mannheim, Germany) 24 h after light activation. Briefly, 100 μl of Apo-ONE reagent was added to the cells, and they were incubated for 6 h before fluorescence readings were taken with an ELISA plate reader Elisareader ELx808 (Bio-TEK, Bad Friedrichsahll, Germany) using an excitation wavelength of 485 nm and an emission wavelength of 535 nm. The concentration of ROS was determined by measuring the 485/535 nm fluorescence ratio of H2DCFDA (Invitrogen, Darmstadt, Germany). […] The cells were washed twice with warm PBS containing 2.5% FCS, cultured for 2 h in […] medium and illuminated as described above. Fluorescence readings were taken directly after illumination. A blank probe (cells and medium) reading was used as the background and subtracted from all the sample readings.

The test system of the next test is A431 cells. As to the kind of experiment: ROS generation (carboxy-H2DCFDA fluorescence) in photosensitized A431 cells. Format: cell-based, human. The following applies: 200 nM. On the procedure:
Caspase-3/7 activity in cell lysates was determined using the Apo-ONE Caspase-3/7 assay (Promega, Mannheim, Germany) 24 h after light activation. […] The cells were washed twice with warm PBS containing 2.5% FCS, cultured for 2 h in […] medium and illuminated as described above. Fluorescence readings were taken directly after illumination. A blank probe (cells and medium) reading was used as the background and subtracted from all the sample readings.

In test [1] the test system is A431, MDA-MB-231, MDA-MB468 and SiHa cells. As to the kind of experiment: Confocal microscopy binding and internalization, EGFR^+ cells. The format is cell-based, human. On the procedure:
(§2) Images were visualized with a TCS SP5 confocal microscope (LEICA Microsystem, Wetzlar, Germany). Cells were prepared as described above for flow cytometry. Binding efficiency was determined by incubating cells with the labeled fusion proteins for 30 min on ice. Internalization was monitored by incubating cells with the labeled fusion proteins for 30 min at 37° C.

The subject of test [2] is EGFR^− cell lines L540 and CHO-K1. Kind of test: Confocal microscopy binding and internalization, EGFR^− cells. The format is cell-based, human. The following applies: 4° C. and 37° C. Here is the method: as §2

For scFv-425-SNAP-Ce6, the cell viability result with CHO-K1 is listed as “remained unaffected”. The “levels of caspase-3 and caspase-7” value in the test with caspase-3 and caspase-7 is on record as “increased”. Also, the “ROS synthesis (DCF 485/535-nm fluorescence)” value with A431 cells (after light activation) is reported as “burst of ROS synthesis”. For the same substance, the “ROS levels (DCF 485/535-nm fluorescence)” value in the test with A431 cells (non-irradiated cells) was “only a small increase in ROS levels”. In addition, in test [1] (0.5 μg, 30 min at 4° C.), the “membrane staining (confocal microscopy)” value is “strong, specific and homogeneous membrane staining”. For the same substance, the “internalization (uptake into cells, confocal microscopy)” value in test [1] (30-min incubation at 37° C.) was “specifically and efficiently taken up”. Also, the “Ce6 fluorescence signal (confocal microscopy)” value in test [2] was “no signal was detected”.
